Assay results published in patent US8198273B2, “Compounds and methods for kinase modulation, and indications therefor” (Plexxikon Inc., priority 2009, dated 2012).

Columns and labels:
CYP1A2 = biological target: T1, CYP1A2 (Homo sapiens, UniProt P05177); test: CYP1A2 inhibition (fluorescent substrate); assay type: in vitro ADME; settings: CYP1A2, CEC substrate; read-out: Cyp IC50 1A2
T1 sequence (P05177 1-516): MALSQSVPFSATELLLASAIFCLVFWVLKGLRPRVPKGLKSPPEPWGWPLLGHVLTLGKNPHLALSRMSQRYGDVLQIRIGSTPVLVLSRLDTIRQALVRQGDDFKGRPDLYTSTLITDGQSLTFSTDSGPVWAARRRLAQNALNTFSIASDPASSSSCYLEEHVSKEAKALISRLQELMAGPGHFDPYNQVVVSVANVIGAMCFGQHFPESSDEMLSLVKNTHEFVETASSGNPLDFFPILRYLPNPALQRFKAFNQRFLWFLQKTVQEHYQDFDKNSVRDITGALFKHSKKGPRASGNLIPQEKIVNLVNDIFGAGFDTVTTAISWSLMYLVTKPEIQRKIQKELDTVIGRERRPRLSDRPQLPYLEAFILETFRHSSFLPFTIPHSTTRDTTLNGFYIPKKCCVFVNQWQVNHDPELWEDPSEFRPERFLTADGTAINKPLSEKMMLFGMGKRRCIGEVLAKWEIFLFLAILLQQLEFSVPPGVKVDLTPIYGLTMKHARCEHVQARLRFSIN
In short: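 IC50 values come from plotting product fluorescence against compound concentration; inhibition lowers formation of the fluorescent metabolite. Ten-point twofold dilutions in co-factor mix were held 10 minutes at 37 °C before the enzyme reaction, also run at 37 °C.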

[1] = test system: SW620 colon adenocarcinoma cells (wild-type B-RAF); test: SW620 cell growth inhibition (ATPlite); assay type: cell-based; settings: Homo sapiens, SW-620, 72 h; SW620, 3 days incubation
In short: (§1)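 Cells plated overnight, then exposed 3 days at 37° C to 8-point 1:3 compound dilutions topping at 10 μM final. Viability read as ATPlite luminescence, proportional to cell number; IC50 from luminescence versus concentration.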

B-Raf = B-Raf (Homo sapiens, UniProt P15056); test: B-Raf biochemical kinase inhibition (AlphaScreen, biotin-MEK1 substrate); settings: 100 μM ATP
In short: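 IC50 derived from AlphaScreen signal plotted against compound concentration. Final ATP 100 μM; 3 h incubation at room temperature. Eight-point 3-fold dilution series prepared from a 0.1 mM DMSO stock.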

[2] = test system: COLO205 colon adenocarcinoma cells (B-Raf V600E); test: COLO205 cell growth inhibition (ATPlite); assay type: cell-based; settings: Homo sapiens, COLO 205, 72 h; COLO205, 3 days incubation
In short: as §1

Sequence of B-Raf (P15056 whole entry): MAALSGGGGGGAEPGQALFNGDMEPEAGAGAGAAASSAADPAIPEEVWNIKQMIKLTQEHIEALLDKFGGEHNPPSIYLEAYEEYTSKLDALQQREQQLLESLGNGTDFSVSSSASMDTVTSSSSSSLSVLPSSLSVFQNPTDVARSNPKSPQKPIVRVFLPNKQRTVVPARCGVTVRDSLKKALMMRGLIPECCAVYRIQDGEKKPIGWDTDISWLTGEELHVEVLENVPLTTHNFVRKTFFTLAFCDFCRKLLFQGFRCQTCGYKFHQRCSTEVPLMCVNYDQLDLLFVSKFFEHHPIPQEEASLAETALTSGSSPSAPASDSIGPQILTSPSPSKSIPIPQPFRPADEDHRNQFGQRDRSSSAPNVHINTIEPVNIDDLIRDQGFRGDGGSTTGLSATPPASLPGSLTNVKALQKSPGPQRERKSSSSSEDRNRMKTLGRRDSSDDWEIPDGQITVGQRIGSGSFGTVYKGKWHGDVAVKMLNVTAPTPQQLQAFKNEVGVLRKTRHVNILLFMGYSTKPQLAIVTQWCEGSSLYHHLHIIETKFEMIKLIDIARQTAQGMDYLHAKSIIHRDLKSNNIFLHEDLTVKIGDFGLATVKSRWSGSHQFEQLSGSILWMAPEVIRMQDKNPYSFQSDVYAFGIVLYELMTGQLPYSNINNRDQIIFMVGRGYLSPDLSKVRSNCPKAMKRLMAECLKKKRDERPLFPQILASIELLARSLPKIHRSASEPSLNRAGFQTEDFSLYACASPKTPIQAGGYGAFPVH

With Cc1cnc2[nH]cc(C(=O)c3c(F)ccc(NS(=O)(=O)c4cccc(F)c4)c3F)c2c1 [P-2016, N-[2,4-Difluoro-3-(5-methyl-1H-pyrrolo[2,3-b]pyridine-3-carbonyl)-phenyl]-3-fluoro-benzenesulfonamide] as the compound, how does the IC50 (CYP1A2) read?
Its IC50 is > 10 µM.

And the IC50 [1]?
The IC50 was > 10 µM.

What about the IC50 (B-Raf) of the same compound?
Its IC50 is < 0.1 µM.

What about the IC50 [2] of the same compound?
Its IC50 is < 5 µM.

For CCCS(=O)(=O)Nc1ccc(F)c(C(=O)c2c[nH]c3ncc(-c4cncnc4)cc23)c1F [P-2162, Propane-1-sulfonic acid [2,4-difluoro-3-(5-pyrimidin-5-yl-1H-pyrrolo[2,3-b]pyridine-3-carbonyl)-phenyl]-amide], which IC50 (CYP1A2) is on record?
The IC50 was < 5 µM.

What about the IC50 [1] of the same compound?
The IC50 was > 10 µM.

What about the IC50 (B-Raf) of the same compound?
Its IC50 is < 0.1 µM.

And the IC50 [2]?
Its IC50 is < 1 µM.

What does the source list for N#Cc1cnc2[nH]cc(C(=O)c3cccc(NS(=O)(=O)c4cc(F)ccc4F)c3F)c2c1 [P-2052, N-[3-(5-Cyano-1H-pyrrolo[2,3-b]pyridine-3-carbonyl)-2-fluoro-phenyl]-2,5-difluoro-benzenesulfonamide]?
IC50 (CYP1A2): > 10 µM; IC50 [1]: > 10 µM; IC50 (B-Raf): < 0.1 µM; IC50 [2]: < 1 µM

How did the IC50 (CYP1A2) turn out when N#Cc1cnc2[nH]cc(C(=O)c3c(F)ccc(NS(=O)(=O)c4ccccc4F)c3F)c2c1 [P-2011, N-[3-(5-Cyano-1H-pyrrolo[2,3-b]pyridine-3-carbonyl)-2,4-difluoro-phenyl]-2-fluoro-benzenesulfonamide] was run?
The IC50 was > 10 µM.

And the IC50 [1]?
Its IC50 is > 10 µM.

And the IC50 (B-Raf)?
The IC50 was < 0.1 µM.

And the IC50 [2]?
Its IC50 is < 1 µM.

With CCCS(=O)(=O)Nc1ccc(F)c(C(=O)c2c[nH]c3ncc(-c4ccc(C)nc4)cc23)c1F [P-2213, Propane-1-sulfonic acid {2,4-difluoro-3-[5-(6-methyl-pyridin-3-yl)-1H-pyrrolo[2,3-b]pyridine-3-carbonyl]-phenyl}-amide] as the compound, how does the IC50 (CYP1A2) read?
The IC50 was > 10 µM.

And the IC50 [1]?
The IC50 was < 20 µM.

What about the IC50 (B-Raf) of the same compound?
Its IC50 is < 0.01 µM.

And the IC50 [2]?
Its IC50 is < 1 µM.

What does the source list for CCCS(=O)(=O)Nc1ccc(F)c(C(=O)c2c[nH]c3ncc(-c4ccc(OCCCN5CCOCC5)nc4)cc23)c1F [P-2236, Propane-1-sulfonic acid (2,4-difluoro-3-{5-[6-(3-morpholin-4-yl-propoxy)-pyridin-3-yl]-1H-pyrrolo[2,3-b]pyridine-3-carbonyl}-phenyl)-amide]?
IC50 (CYP1A2): > 10 µM; IC50 [1]: > 10 µM; IC50 (B-Raf): < 0.01 µM; IC50 [2]: < 0.1 µM
